According to ChEMBL document CHEMBL6109152, “Harnessing the SPOP E3 Ubiquitin Ligase via a Bridged Proteolysis Targeting Chimera (PROTAC) Strategy for Targeted Protein Degradation” (J Med Chem, 2025):
The source made the active and inactive calls. The rule behind the calls is not given here.

Tests used:
[1] = target: T1, Speckle-type POZ protein-Bromodomain-containing protein 2 (Homo sapiens) (UniProt P25440+O43791); assay: PROTAC activity at SPOP/BRD2 in human HT-29 cells assessed as induction of BRD2 degradation by measuring fold change at 0.156 uM incubated for 24 hrs by Western blot analysis (reference value: 1.00); type: cell-based
T1 sequence (O43791 whole entry, looked up, canonical isoform): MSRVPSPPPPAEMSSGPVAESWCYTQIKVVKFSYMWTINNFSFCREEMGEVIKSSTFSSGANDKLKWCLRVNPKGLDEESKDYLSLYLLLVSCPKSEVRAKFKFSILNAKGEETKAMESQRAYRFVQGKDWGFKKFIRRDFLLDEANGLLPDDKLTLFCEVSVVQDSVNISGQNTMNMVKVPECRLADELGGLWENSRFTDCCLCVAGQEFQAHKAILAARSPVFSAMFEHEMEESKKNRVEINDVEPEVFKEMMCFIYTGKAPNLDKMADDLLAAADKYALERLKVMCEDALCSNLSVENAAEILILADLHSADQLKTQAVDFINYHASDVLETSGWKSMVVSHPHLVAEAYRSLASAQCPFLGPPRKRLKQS
T1 sequence (P25440 whole entry, looked up, canonical isoform): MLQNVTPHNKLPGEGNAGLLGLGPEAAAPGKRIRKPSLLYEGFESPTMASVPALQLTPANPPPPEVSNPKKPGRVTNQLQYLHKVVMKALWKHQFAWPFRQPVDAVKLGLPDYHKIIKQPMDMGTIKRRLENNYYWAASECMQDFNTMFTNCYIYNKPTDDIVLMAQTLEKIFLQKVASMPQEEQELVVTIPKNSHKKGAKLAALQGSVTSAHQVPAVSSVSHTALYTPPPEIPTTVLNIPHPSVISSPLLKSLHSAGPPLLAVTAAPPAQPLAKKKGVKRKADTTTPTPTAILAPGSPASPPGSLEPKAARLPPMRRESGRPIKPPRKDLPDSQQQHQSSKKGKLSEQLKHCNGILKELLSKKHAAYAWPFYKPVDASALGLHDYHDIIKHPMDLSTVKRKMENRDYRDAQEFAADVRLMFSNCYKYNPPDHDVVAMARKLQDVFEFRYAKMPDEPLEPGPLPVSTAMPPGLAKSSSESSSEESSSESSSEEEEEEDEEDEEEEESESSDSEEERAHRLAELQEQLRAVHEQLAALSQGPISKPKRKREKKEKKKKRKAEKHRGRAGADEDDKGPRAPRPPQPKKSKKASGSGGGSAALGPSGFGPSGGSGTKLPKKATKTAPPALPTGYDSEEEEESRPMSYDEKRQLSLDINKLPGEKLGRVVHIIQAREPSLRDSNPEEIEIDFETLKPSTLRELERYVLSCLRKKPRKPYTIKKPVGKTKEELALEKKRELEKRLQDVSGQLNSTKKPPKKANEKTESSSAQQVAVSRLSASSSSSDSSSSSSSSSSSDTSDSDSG

[2] = target: T2, Speckle-type POZ protein-Bromodomain-containing protein 4 (Homo sapiens, UniProt O60885+O43791); assay: PROTAC activity at SPOP/BRD4-S in human HT-29 cells assessed as induction of BRD4 short isoform degradation at 0.5 to 5 uM incubated for 24 hrs by Western blotting analysis; type: cell-based; details: dose 0.5-5 µM
T2 sequence (O43791 whole entry, looked up, other chains not shown, canonical isoform): as the sequence (O43791 whole entry, looked up, canonical isoform) above

[3] = target: T2, Speckle-type POZ protein-Bromodomain-containing protein 4; assay: PROTAC activity at SPOP/BRD4-L in human HT-29 cells assessed as induction of BRD4 long isoform degradation by measuring fold change at 1.25 uM incubated for 24 hrs by Western blotting analysis (reference value: 1.00); type: cell-based
[4] = target: T2, Speckle-type POZ protein-Bromodomain-containing protein 4; assay: PROTAC activity at SPOP/BRD4-S in human HT-29 cells assessed as induction of BRD4 short isoform degradation by measuring fold change at 0.156 uM incubated for 24 hrs by Western blotting analysis (reference value: 1.00); type: cell-based
[5] = target: T2, Speckle-type POZ protein-Bromodomain-containing protein 4; assay: PROTAC activity at SPOP/BRD4-L in human HT-29 cells assessed as induction of BRD4 long isoform degradation at 0.5 to 5 uM incubated for 24 hrs by Western blotting analysis; type: cell-based; details: dose 0.5-5 µM
[6] = target: Bromodomain-containing protein 4 (Homo sapiens, UniProt O60885); assay: Inhibition of BRD4 in human HT-29 cells assessed as decrease in c-MYC protein level by measuring fold change at 0.156 uM incubated for 24 hrs by Western blot analysis (reference value: 1.00); type: cell-based
[7] = target: T1, Speckle-type POZ protein-Bromodomain-containing protein 2 (Homo sapiens); assay: PROTAC activity at SPOP/BRD2 in human HT-29 cells assessed as induction of BRD2 degradation by measuring fold change at 0.313 uM incubated for 24 hrs by Western blot analysis (reference value: 1.00); type: cell-based
[8] = target: T2, Speckle-type POZ protein-Bromodomain-containing protein 4; assay: PROTAC activity at SPOP/BRD4-L in human HT-29 cells assessed as induction of BRD4 long isoform degradation by measuring fold change at 10 uM incubated for 24 hrs by Western blotting analysis (reference value: 1.00); type: cell-based
[9] = target: T2, Speckle-type POZ protein-Bromodomain-containing protein 4; assay: PROTAC activity at SPOP/BRD4-S in human HT-29 cells assessed as induction of BRD4 short isoform degradation at 5 uM incubated for 24 hrs by Western blotting analysis relative to control; type: cell-based
[10] = target: T2, Speckle-type POZ protein-Bromodomain-containing protein 4; assay: PROTAC activity at SPOP/BRD4-L in human HT-29 cells assessed as induction of BRD4 long isoform degradation by measuring fold change at 0.156 uM incubated for 24 hrs by Western blotting analysis (reference value: 1.00); type: cell-based
[11] = target: T2, Speckle-type POZ protein-Bromodomain-containing protein 4; assay: PROTAC activity at SPOP/BRD4-S in human HT-29 cells assessed as induction of BRD4 short isoform degradation by measuring fold change at 10 uM incubated for 24 hrs by Western blotting analysis (reference value: 1.00); type: cell-based
[12] = target: T2, Speckle-type POZ protein-Bromodomain-containing protein 4; assay: PROTAC activity at SPOP/BRD4-S in human HT-29 cells assessed as induction of BRD4 short isoform degradation by measuring fold change at 0.625 uM incubated for 24 hrs by Western blotting analysis (reference value: 1.00); type: cell-based
[13] = target: T2, Speckle-type POZ protein-Bromodomain-containing protein 4; assay: PROTAC activity at SPOP/BRD4-L in human MDA-MB-231 cells assessed as induction of BRD4 long isoform degradation at 0.1 to 5 uM incubated for 24 hrs by Western blotting analysis; type: cell-based; details: dose 0.1-5 µM
PNT2 = assay: Cytotoxicity against human PNT2 assessed as reduction in cell growth at 0.021 to 10 uM incubated for 72 hrs by WST-8 reagent based assay; type: toxicity; details: pnt2, 72 h, dose 0.021-10 µM
HT-29 = assay: Binding affinity to BRD4-L/GLP/SPOP in human HT-29 cells assessed as compound-BRD4-GLP-SPOP quaternary complex formation at 20 to 100 uM incubated for 1 hrs by pulldown based Western blot analysis; type: cell-based; details: dose 20-100 µM
[14] = target: T3, Histone-lysine N-methyltransferase EHMT1 (Homo sapiens, UniProt Q9H9B1); assay: Binding affinity to recombinant GLP-SET domain (unknown origin) assessed as assessed as dissociation constant by ITC analysis
T3 sequence (Q9H9B1 whole entry): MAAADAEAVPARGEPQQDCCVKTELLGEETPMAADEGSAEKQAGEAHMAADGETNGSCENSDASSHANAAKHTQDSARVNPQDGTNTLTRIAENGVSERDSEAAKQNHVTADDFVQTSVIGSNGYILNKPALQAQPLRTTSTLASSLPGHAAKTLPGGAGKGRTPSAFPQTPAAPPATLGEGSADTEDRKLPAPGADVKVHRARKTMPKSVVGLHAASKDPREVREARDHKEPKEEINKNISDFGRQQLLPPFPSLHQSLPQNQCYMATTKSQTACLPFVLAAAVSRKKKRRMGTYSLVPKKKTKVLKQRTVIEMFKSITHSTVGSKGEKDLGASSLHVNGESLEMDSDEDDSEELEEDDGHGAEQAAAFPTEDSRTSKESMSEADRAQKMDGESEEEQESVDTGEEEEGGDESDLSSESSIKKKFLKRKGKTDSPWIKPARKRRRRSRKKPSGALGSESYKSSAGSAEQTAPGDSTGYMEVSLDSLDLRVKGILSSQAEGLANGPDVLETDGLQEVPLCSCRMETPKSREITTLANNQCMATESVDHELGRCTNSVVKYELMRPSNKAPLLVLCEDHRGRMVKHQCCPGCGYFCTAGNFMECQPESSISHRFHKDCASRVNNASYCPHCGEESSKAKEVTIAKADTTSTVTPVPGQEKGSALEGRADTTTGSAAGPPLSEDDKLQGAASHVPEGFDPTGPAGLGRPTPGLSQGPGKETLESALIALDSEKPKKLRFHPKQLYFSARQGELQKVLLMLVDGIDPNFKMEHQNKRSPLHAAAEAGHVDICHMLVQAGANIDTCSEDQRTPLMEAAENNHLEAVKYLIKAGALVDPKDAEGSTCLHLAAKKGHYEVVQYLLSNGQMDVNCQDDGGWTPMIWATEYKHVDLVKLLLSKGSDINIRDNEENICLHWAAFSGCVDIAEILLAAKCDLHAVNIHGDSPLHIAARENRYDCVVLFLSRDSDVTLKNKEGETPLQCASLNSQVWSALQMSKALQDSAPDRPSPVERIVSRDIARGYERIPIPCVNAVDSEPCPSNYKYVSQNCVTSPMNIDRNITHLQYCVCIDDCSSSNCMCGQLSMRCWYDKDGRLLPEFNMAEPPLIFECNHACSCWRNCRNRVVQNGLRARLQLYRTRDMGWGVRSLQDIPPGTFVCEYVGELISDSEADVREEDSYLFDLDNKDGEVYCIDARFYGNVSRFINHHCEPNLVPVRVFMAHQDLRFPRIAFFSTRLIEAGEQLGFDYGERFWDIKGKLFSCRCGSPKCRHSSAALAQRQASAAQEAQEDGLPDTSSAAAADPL

## COc1cc2c(NC3CCN(CCCC(=O)NCCCCCCCCCCNC(=O)C[C@@H]4N=C(c5ccc(Cl)cc5)c5c(sc(C)c5C)-n5c(C)nnc54)CC3)cc(N3CCOCC3)nc2cc1OCCCN1CCCC1
[1]
  fold change (FC): 1.3
[2]
  Activity: Active
[3]
  fold change (FC): 1.2
[4]
  fold change (FC): 1
[5]
  Activity: inactive
[6]
  fold change (FC): 1
[7]
  fold change (FC): 1.2
[8]
  fold change (FC): 0.6
[9]
  Activity: > 50%
[10]
  fold change (FC): 1.2
[11]
  fold change (FC): 0.3
[12]
  fold change (FC): 0.9
[13]
  Activity: Active
PNT2
  Activity: Non-toxic
HT-29
  Activity: Active
[14]
  Kd: 306 nM
